# Source: US8614240B2, “Benzoxazole derivatives having inhibitory activity against interleukin-6, preparation method thereof, and pharmaceutical composition containing the same” (EWHA University-Industry Collaboration Foundation, priority 2010, dated 2013)
# What was measured:
# C57BL/6 female mice = test: In vivo test of toxicity of the compounds (body weight, appearance)
# Procedure: In the animal experiments, C57BL/6 female mice (control group 4 mice, test group (dose group) 4 mice) obtained from Central Lab. Animal Inc. were used. The experimental animals were acclimated by breeding them at the place established with temperature 23 ±3° C., relative humidity 50 ±10%, lighting time 12 hours (6 a.m.-6 p.m.), number of ventilation 10-20 times/hour, and illuminance 150-300 Lux, for one week. All the testers who evaluated the activity in animals worn high-pressure steam sterilized (121° C., 20 minutes) working clothes, hood, mask and gloves, and conducted the experiment. During the periods of accommodation and quarantine the experimental animals were accommodated in a polycarbonate-made shoes box-type breeding cage (260W×410L×200H mm) by 4 mice in each cage. During the periods of administration and observation, the experimental animals were accommodated in a wire breeding cage (205W×350 L×175H mm) with one mouse in each cage. During the period of experiments, the breeding cages were discriminated with attaching the labels in which the experiment numbers and the animal numbers were entered. The animals were allowed to freely ingest a radiation-sterilized (25 kGy, Picolab) solid feed for experimental animals as the feed, and tap water, which was sterilized with an autoclave, as the drinking water by means of a water bottle. […]
# [1] = system: IL-6 induced STAT3 phosphorylation; test: Test for inhibitory activity against STAT3 phosphorylation induced by IL-6 (Western blot, HepG2); assay type: cell-based, human; settings: HepG2, 1, 3, 10, 30, 100 ug/ml, 10 ng/ml IL-6 (FIG. 4)
# Procedure: HepG2 cells were divisionally inoculated in 6-well plate in the ratio of 5×10^4 cells/well, and grown to be 80% confluent. After changing to a serum-free medium and incubating for 6 hours, cells were pre-treated with the samples for one hour. […] Then the mixture was centrifuged (13,000×g, 15 minutes) to obtain a lysate as the supernatant. Herein, HepG2 cells not treated with IL-6 and the samples were used as the control group. The concentration of proteins was quantified by means of Bio-Rad DC protein assay kit, and the protein was loaded on 10% SDS-polyacrylamide gel (SDS-PAGE) and electrophoresed at 30 mA for 2 hours. After completion of the electrophoresis, the protein on gel was transcribed into PVDF membrane (Westran® S, pore size […]) at 90V for 90 minutes, and the transcribed membrane was blocked with Tris-buffered solution (T-TBS; 50 mM Tri-HCl, pH 7.6, 150 mM NaCl, 0.2% Tween-20, 5% skim milk) at 4° C. for 12 hours, and washed five time with T-TBS. The membrane was treated with polyclonal antibodies of phospho-STAT3 (1:1000 dilutions, respectively) as the primary antibody for 2 hours. After washing five times with T-TBS, the membrane was reacted with HRP-conjugated anti-rabbit antibody (1:5000 dilutions) as the secondary antibody for one hour. After washing with T-TBS, the film was developed in the dark room by means of ECL.
# [2] = system: Zymosan A-induced paw inflammation in C57BL/6 mice; test: Zymosan A-induced paw inflammation, effect of alleviating the inflammation; assay type: in vivo, mouse; settings: for Difference between the thicknesses of the right paw and left paw: Zymosan and 30 mg/kg Compound 3 into right paw
# Procedure: For this experiment, C57BL/6 mice were obtained from Central Lab. Animal Inc., and acclimated for one week and then used in the experiment. The gender of animals used in the experiment was female, and 4 mice were used in each of the control group and the test group (Doe group). To experiment Compound 3's effect of alleviating the inflammation, the thicknesses of paws having the inflammation is reduced by injecting 3 mg of Zymosan A and 30 mg/kg of Compound 3 into right paws of the experimental animals, and both the paw thicknesses in the control group to which Zymosan A was administered to induce the inflammation and the control group having no treatment were measured every day, and the results are as shown in FIG. 7.
# When the paw thickness was measured every day after inducing the inflammatory reaction by Zymosan, a difference between the thicknesses of the right paw and left paw was 8.5, 7.0, 6.5, 5.5, 5.6 mm. It could be identified that by treatment with Zymosan and Compound 3 the inflammatory reaction was alleviated so that a difference between paw thicknesses was 6.0, 3.0, 2.0, 1.9, 1.8 mm. A difference between paw thicknesses could also be identified in real photographs of the group treated only with Zymosan, the test group treated with Zymosan and Compound 3, and the control group having no treatment of the experimental animals on the 6th day in the inflammation alleviating assay (FIG. 8).
# Respective cell lines = test: Cytotoxicity assay (MTT); assay type: cell-based; settings: 48 hours
# Procedure: In testing the compounds in cell lines, if cells are killed due to a toxicity of the compounds at the treatment concentration, a significant result cannot be obtained. Therefore, the toxicity assay was conducted by treatment with the compounds as follows. Respective cell lines were maintained on 96-well cell culture plate in the medium comprising 10% FBS with 1% Penicillin G/streptomycin, and then incubated under 37° C., 5% CO2 condition. All the experiments were repeated three times. The samples were properly diluted, and then cells were treated with the diluted samples at the concentrations of 1, 3, 10, 30, 100 μg/ml. After 48 hours, 10% (v/v) 5 mg/mL 3-(4,5-dimethylthiazol-2-yl)-2,5-diphenyltetrazolium bromide (MTT; Sigma) was added to the cell culture. After 3 hours of the incubation, the medium was aspirated and washed with PBS. After adding DMSO (100 μl), the mixture was gently agitated for 5 minutes. The absorbance was measured at 570 nm by means of VERSA max microplate reader (Molecular Devices Inc.), and the average absorbance (±SE) values as obtained from three experiments were compared with t-test, a statistical significance of P<0.05. When Compounds 1 and 3 were used at the concentrations of 1, 3, 10, 30, 100 μg/ml, the survival rates of cells were 94, 76, 70, 67, 30%, respectively, by the treatment with Compound 1, and 74, 71, 65, 57, 19%, respectively, by the treatment with Compound 3. It means that at least 50% of cells survive at the concentration (for example, 30 μg/ml) of the compounds of the present invention for measuring IL-6 inhibitory activity.
structure (smiles),measurement,setting,value
"CCc1ccc(Nc2nc3cc(NC(=O)c4ccccc4)ccc3o2)cc1 [Compound 3, N-(2-(4-ethylphenylamino)benzo[d]oxazol-5-yl)benzamide]",Change in body weight compared to the control group,"C57BL/6 female mice; 30 mg/kg intraperitoneally once a day, 5 days, C57BL/6 female mice (FIG. 6)",did not show any change in the weight
same,Toxic symptom in appearance,"C57BL/6 female mice; after 6 days, C57BL/6 female mice",did not show any toxic symptom in appearance
same,Inhibitory activity on IL-6 induced STAT3 phosphorylation,[1],inhibited IL-6 expression in a concentration-dependent manner
same,Effect of alleviating the inflammation,"[2]; 30 mg/kg, Zymosan A-induced paw inflammation (FIGS. 7, 8)",exhibited the effect of alleviating the inflammation
same,Difference between the thicknesses of the right paw and left paw,[2]; 1st daily measurement,6.0 mm
same,Difference between the thicknesses of the right paw and left paw,[2]; 2nd daily measurement,3.0 mm
same,Difference between the thicknesses of the right paw and left paw,[2]; 3rd daily measurement,2.0 mm
same,Difference between the thicknesses of the right paw and left paw,[2]; 4th daily measurement,1.9 mm
same,Difference between the thicknesses of the right paw and left paw,[2]; 5th daily measurement,1.8 mm
same,Survival rate of cells,Respective cell lines; 1 μg/ml,74%
same,Survival rate of cells,Respective cell lines; 3 μg/ml,71%
same,Survival rate of cells,Respective cell lines; 10 μg/ml,65%
same,Survival rate of cells,Respective cell lines; 30 μg/ml,57%
same,Survival rate of cells,Respective cell lines; 100 μg/ml,19%
